Columns and labels:
[1] = system: Botryotinia fuckeliana (Botrytis cinerea); experiment: Botryotinia fuckeliana (Botrytis cinerea) / liquid culture (gray mould); format: cell-based; conditions: 72 h, 20 ppm, liquid culture, inhibition of growth photometrically 3-4 days after application, compared to untreated control, read-out: control of Botryotinia fuckeliana
[2] = system: Glomerella lagenarium (Colletotrichum lagenarium); experiment: Glomerella lagenarium (Colletotrichum lagenarium) / liquid culture (anthracnose); format: cell-based; conditions: Colletotrichum orbiculare; 20 ppm; liquid culture, inhibition of growth photometrically 3-4 days after application; compared to untreated control; read-out: control of Glomerella lagenarium
Fusarium culmorum [3] = experiment: microbe, parasite or virus in culture; format: cell-based; conditions: read-out: control of Fusarium culmorum
Fusarium culmorum [4] = experiment: whole plant or invertebrate; format: in vivo, Fusarium culmorum on wheat spikelets cv. Monsun; conditions: in Triticum aestivum, read-out: control of Fusarium culmorum
[5] = system: Monographella nivalis (Microdochium nivale); experiment: Monographella nivalis (Microdochium nivale) / liquid culture (foot rot cereals); format: cell-based; conditions: 96 h, inhibition of growth photometrically 4-5 days after application, compared to untreated control
[6] = system: Magnaporthe grisea (Pyricularia oryzae); experiment: microbe, parasite or virus in culture; format: cell-based; conditions: 72 h, read-out: control of Magnaporthe grisea
[7] = system: Magnaporthe grisea (Pyricularia oryzae); experiment: whole plant or invertebrate; format: in vivo; conditions: foliar, read-out: control of Magnaporthe grisea
Sclerotinia sclerotiorum = Sclerotinia sclerotiorum / liquid culture (cottony rot); conditions: 72 h, read-out: control of Sclerotinia sclerotiorum
Description: Sclerotinia sclerotiorum/Liquid Culture (Cottony Rot)
Mycelia fragments of a newly grown liquid culture of the fungus are directly mixed into nutrient broth (Vogels broth). After placing a (DMSO) solution of test compound into a microtiter plate (96-well format) the nutrient broth containing the fungal material is added. The test plates are incubated at 24° C. and the inhibition of growth is determined photometrically 3-4 days after application.

[8] = system: Gibberella zeae (Fusarium graminearum); experiment: whole plant or invertebrate; format: in vivo; conditions: in Triticum aestivum, 144 h, read-out: control of Gibberella zeae

| Compound | inhibition of growth at 20 ppm [1] | inhibition of growth at 20 ppm [2] | inhibition of growth at 20 ppm (Fusarium culmorum [3]) | pest or weed control at 200 ppm (Fusarium culmorum [4]) | inhibition of growth at 20 ppm [5] | inhibition of growth at 20 ppm [6] | pest or weed control at 200 ppm [7] | melting point | inhibition of growth at 20 ppm (Sclerotinia sclerotiorum) | pest or weed control at 200 ppm [8] |
| --- | --- | --- | --- | --- | --- | --- | --- | --- | --- | --- |
| C=C(Cl)CC(C)(CC1CCCCC1)NC(=O)c1cnc2c(F)cccc2c1 (centres unmarked) [E-37] | ≥ 80% | ≥ 80% | ≥ 80% | ≥ 80% | ≥ 80% | ≥ 80% | ≥ 80% | 109 to 111 °C | ≥ 80% | – |
| CC(CC1CCCC1)(CC(F)(F)F)NC(=O)c1cnc2c(F)cccc2c1 (centres unmarked) [E-59] | ≥ 80% | ≥ 80% | ≥ 80% | ≥ 80% | ≥ 80% | ≥ 80% | ≥ 80% | 100 to 102 °C | ≥ 80% | ≥ 80% |
| CC1(C[C@@](C)(CC(F)(F)F)NC(=O)c2cnc3c(F)cccc3c2)CC1 [F-2, 8-fluoro-N-[(1S)-3,3,3-trifluoro-1-methyl-1-[(1-methylcyclo-propyl)meth-yl]propyl]quinoline-3-carboxamide] | ≥ 80% | ≥ 80% | ≥ 80% | ≥ 80% | ≥ 80% | ≥ 80% | ≥ 80% | – | – | ≥ 80% |
| C[C@@](CC1CCCC1)(CC(F)(F)F)NC(=O)c1cnc2c(F)cccc2c1 [F-4, N-[(1R)-1-(cyclopentylmeth-yl)-3,3,3-trifluoro-1-methyl-propyl]-8-fluoro-quinoline-3-carboxamide] | ≥ 80% | ≥ 80% | ≥ 80% | – | ≥ 80% | ≥ 80% | ≥ 80% | 100 to 101 °C | ≥ 80% | – |
